Data published in patent publication US20160272645A1, “Heterocyclic Compounds and Methods of Use” (MEDIVATION TECHNOLOGIES, INC., priority 2013, published 2016).

Assays:
[1] = target: T1, PI3Kδ (Homo sapiens, UniProt O00329); test: PI3Kδ kinase profiling, HTRF PIP3 displacement assay (Reaction Biology); format: biochemical; conditions: ATP 10 μM; for inhibition at 0.01 µM: compound 0.01 μM, read-out: PI3Kδ @ 0.01 μM (% Inh); for inhibition at 0.1 µM: compound 0.1 μM, read-out: PI3Kδ @ 0.1 μM (% Inh)
T1 construct: purchased Reaction Biology Corporation

[2] = system: CD69+B220+ cells (mouse spleen cells); test: B cell activation assay (IgD-stimulated CD69 on B220+ spleen cells, FACS); format: cell-based; conditions: 100 nM test compound, 30 min, then IgD 3 μg/mL 4 h, read-out: CD69 @ 100 nM (% Inh)
Method: 1 Female mouse approximately 2 months old was euthanized with CO2 and the spleen removed. The tissue was homogenized with a polished glass microscope slide. The cells were collected in 5 mL complete medium (RPMI+10% FBS+pen/strep), placed in a 15 mL falcon tube and centrifuged at 500×g for 5 min. The supernatant was discarded and the pellet was resuspended in 3 mL of ACK lysis buffer (NH4Cl 0.17M, KHCO3 10 mM, EDTA-Na2 0.1 mM, pH 7.2), incubated at 37° C. for 5 min. 2 mL complete medium was added and the mixture centrifuged at 500×g for 5 min. The supernatant was discarded and the pellet resuspended in 1 mL complete medium. The mixture was passed through a […] cell strainer and collect in 50 mL falcon tube. Enough medium was added to have a total of 10 mL. The cells were counted and seeded in 24 or 48-well plate in 1 mL complete medium at 10^6 cells/mL. The plate was placed in a 37° C. incubator for 15 min. The cells were treated for 30 min at 37° C. with 100 nM test compound dissolved in 100% DMSO. 3 μL IgD (Accurate chemical and scientific corp.) was added at a final concentration of 3 μg/mL and the mixture incubated at 37° C. for 4 h. The cells were collected in 1.5 mL eppendorf tubes, centrifuged at 500×g for 5 min and then resuspended in 100 μL of PBS+2% FBS. The following antibodies were added: α-B220 PE (pharmingen #553090), α-CD69 APC (pharmingen #60689), live/dead fixable aqua dead cell stain kit (life technologies # L34957) all at 1:300, and the mixture incubated for 15 min at 4° C. in the dark. To this was added 900 μL of PBS+2% FBS and the mixture centrifuged at 500×g for 5 min. The supernatant was removed and the pellet resuspended in 300 μL of PBS+2% FBS and mixed well. The mixture was transferred to a cytometer tube. The samples were run in the FACS Canto II cytometer and quantified by the number of CD69+B220+ cells as a percentage of the total number of B220+ alive cells.

[3] = target: T2, BTK (Homo sapiens, UniProt Q06187); test: BTK kinase profiling, HotSpot radiometric assay (Reaction Biology); format: biochemical; conditions: ATP 10 μM; for inhibition at 0.01 µM: compound 0.01 μM, read-out: BTK @ 0.01 μM (% Inh); for inhibition at 0.1 µM: compound 0.1 μM, read-out: BTK @ 0.1 μM (% Inh); for inhibition at 1 µM: compound 1 μM, read-out: BTK @ 1 μM (% Inh)
T2 construct: purchased Reaction Biology Corporation
Method: (§1) Compounds of the invention were profiled in a 10 dose IC50 panel against BTK and PI3Kδ, both provided by Reaction Biology Corporation.
BTK assay: In vitro profiling protein kinases was performed using the “HotSpot” assay platform. Briefly, specific kinase/substrate pairs along with required cofactors were prepared in reaction buffer. Compounds were prepared as 10 mM stock solutions in DMSO. Compounds were delivered into the reaction, followed 15-20 minutes later by addition of a mixture of ATP (Sigma, St. Louis Mo.) and ^33P ATP (Perkin Elmer, Waltham Mass.) to a final concentration of 10 μM. Reactions were carried out at RT for 120 min, followed by spotting of the reactions onto P81 ion exchange filter paper (Whatman Inc., Piscataway, N.J.). Unbound phosphate was removed by extensive washing of filters in 0.75% Phosphoric acid. […] ICso values and curve fits were obtained using Prism (GraphPad Software). Buffer Conditions: 20 mM Hepes (pH 7.5), 10 mM MgCl2, 1 mM EGTA, 0.02% Brij35, 0.02 mg/mL BSA, 0.1 mM Na3VO4, 2 mM DTT, 1% DMSO.

[4] = system: CD69+B220+ cells (mouse spleen cells); test: B cell activation assay (IgD-stimulated CD69 on B220+ spleen cells, FACS); format: cell-based; conditions: IgD 3 μg/mL 4 h
[5] = target: T1, PI3Kδ; test: PI3Kδ kinase profiling, HTRF PIP3 displacement assay (Reaction Biology); format: biochemical; conditions: compound 1 μM; ATP 10 μM; read-out: PI3Kδ @ 1 μM (% Inh)
Description: as §1
PI3Kδ assay: The PIP3 product is detected by displacement of biotin-PIP3 from an energy transfer complex consisting of Europium labeled anti-GST monoclonal antibody, a GST-tagged pleckstrin homology (PH) domain, biotinylated PIP3 and Streptavidin-Allophycocyanin (APC). Excitation of Europium in the complex results in an energy transfer to the APC and a fluorescent emission at 665 nm. The PIP3 product formed by PI3-Kinase (h) activity displaces biotin-PIP3 from the complex resulting in a loss of energy transfer and thus a decrease in signal. This is a 3-step reaction: First, the kinase reaction with PIP2 substrate is carried out in the presence of ATP (10 μM), and the reaction is quenched with stop Solution, and then finally detect by adding Detection Mixture followed by incubation (10 min). Reaction procedure: 1) Prepare substrate in freshly prepared Reaction Buffer. 2) Deliver kinase into the substrate solution and gently mix. 3) Deliver compounds in 100% DMSO (1 μM) into the kinase reaction mixture by Acoustic technology (Echo550; nanoliter range), incubate for 10 min at RT. 4) Deliver ATP into the reaction mixture to initiate the reaction. 5) Incubate for 30 min at 30° C. 6) Quench the reaction with Stop Solution. 7) Add Detection Mixture, and incubate for overnight. 8) Measure HTRF: Ex=320 nm, ratio of Em=615 nm and Em=665 nm. The emission ratio is converted into μM PIP3 production based on PIP3 standard curves. The nonlinear regression to obtain the standard curve and IC50 values are performed using Graphpad Prism software. Assay Buffer: HEPES 50 mM (pH7.0), NaN3 0.02%, BSA 0.01%, Orthovanadate 0.1 mM, 1% DMSO. Detection buffer: HEPES 10 mM (pH7.0), BSA 0.02%, KF 0.16 M, EDTA 4 mM. Substrate: 10 μM PIP2 substrate (PI(4,5)P2).

T1 sequence (O00329 whole entry): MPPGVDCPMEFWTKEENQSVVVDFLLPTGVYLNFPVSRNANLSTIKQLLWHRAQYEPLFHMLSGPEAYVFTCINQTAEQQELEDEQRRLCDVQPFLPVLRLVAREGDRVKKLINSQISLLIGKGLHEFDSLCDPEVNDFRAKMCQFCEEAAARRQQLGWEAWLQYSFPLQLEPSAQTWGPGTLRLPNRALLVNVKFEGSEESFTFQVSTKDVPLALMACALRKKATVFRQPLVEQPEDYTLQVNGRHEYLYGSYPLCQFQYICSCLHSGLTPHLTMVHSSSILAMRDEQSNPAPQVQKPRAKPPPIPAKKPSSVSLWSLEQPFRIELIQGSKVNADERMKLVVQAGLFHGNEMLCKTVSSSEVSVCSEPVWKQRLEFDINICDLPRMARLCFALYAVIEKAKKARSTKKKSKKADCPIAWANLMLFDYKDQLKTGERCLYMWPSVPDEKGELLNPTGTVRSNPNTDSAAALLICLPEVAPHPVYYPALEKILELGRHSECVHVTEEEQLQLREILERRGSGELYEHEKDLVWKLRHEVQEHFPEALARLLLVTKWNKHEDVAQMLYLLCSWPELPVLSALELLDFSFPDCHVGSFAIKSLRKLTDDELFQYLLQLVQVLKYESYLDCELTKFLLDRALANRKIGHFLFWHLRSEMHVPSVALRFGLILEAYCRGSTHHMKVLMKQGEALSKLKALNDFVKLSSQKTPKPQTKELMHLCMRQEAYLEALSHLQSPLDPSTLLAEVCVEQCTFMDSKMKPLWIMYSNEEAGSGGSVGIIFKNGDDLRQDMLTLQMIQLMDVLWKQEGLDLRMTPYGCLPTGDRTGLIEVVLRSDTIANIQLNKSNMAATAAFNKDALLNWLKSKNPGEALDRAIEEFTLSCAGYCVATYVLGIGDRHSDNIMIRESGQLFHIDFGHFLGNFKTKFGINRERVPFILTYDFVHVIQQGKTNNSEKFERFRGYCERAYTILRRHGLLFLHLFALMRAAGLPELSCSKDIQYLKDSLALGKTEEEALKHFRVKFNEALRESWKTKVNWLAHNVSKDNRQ
T1 sequence (P27986 whole entry partner): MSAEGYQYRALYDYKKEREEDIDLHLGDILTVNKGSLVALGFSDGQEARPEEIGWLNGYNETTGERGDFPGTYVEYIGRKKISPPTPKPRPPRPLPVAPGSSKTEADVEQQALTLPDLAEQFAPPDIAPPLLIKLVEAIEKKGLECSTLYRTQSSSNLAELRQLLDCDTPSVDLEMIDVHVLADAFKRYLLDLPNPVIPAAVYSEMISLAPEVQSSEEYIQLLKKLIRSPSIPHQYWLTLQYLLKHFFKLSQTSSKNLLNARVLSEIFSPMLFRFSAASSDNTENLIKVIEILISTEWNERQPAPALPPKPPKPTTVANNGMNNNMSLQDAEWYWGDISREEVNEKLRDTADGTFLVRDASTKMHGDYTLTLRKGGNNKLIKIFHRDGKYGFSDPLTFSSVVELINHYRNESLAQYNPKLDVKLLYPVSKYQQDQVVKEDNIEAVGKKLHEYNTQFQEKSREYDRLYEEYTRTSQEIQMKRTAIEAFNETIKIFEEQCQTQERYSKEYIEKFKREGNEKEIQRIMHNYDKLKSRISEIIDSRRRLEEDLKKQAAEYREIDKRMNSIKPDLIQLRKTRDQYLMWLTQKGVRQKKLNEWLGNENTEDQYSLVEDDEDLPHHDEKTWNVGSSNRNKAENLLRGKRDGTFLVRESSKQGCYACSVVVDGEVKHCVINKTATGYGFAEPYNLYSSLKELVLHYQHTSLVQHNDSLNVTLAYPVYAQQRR
T2 sequence (Q06187 whole entry): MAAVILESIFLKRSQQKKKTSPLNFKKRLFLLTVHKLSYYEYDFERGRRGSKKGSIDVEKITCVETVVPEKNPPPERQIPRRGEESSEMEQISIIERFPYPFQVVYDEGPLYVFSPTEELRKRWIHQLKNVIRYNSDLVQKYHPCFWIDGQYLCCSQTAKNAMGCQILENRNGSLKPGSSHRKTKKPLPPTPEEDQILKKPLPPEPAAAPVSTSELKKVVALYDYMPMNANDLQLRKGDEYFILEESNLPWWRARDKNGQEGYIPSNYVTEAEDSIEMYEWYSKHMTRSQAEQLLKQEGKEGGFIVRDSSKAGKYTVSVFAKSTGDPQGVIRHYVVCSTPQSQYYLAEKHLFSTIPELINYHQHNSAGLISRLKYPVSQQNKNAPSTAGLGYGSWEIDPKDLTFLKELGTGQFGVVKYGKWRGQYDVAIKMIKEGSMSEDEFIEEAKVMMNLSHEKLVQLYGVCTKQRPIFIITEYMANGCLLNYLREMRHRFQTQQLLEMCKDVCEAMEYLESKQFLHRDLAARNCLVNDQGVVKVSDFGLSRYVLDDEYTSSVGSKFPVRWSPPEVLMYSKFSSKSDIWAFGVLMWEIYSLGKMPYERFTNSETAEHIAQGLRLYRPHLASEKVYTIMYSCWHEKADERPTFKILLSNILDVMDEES

Row | inhibition at 0.01 µM [1] [%] | inhibition at 0.1 µM [1] [%] | inhibition at 0.01 µM [3] [%] | inhibition at 0.1 µM [3] [%] | IC50 [4] [nM] | inhibition at 1 µM [5] [%] | inhibition at 1 µM [3] [%] | SMILES | inhibition at 0.1 µM [2] [%]
1 | 7.57 | 31.1 | 48.5 | 92.1 |  |  |  | C=CC(=O)N(CCn1nc(-c2ccc(Cl)c(O)c2)c2c(N)ncnc21)Cc1ccc(Cl)cc1 [Compound 15, N-{2-[4-amino-3-(4-chloro-3-hydroxyphenyl)-1H-pyrazolo[3,4-d]pyrimidin-1-yl]ethyl}-N-[(4-chlorophenyl)methyl]prop-2-enamide] | -103 ± 45.4
2 | 13.6 | 41.1 | 90.3 | 96.2 |  |  |  | C=CC(=O)N(CCn1nc(-c2ccc(Cl)c(O)c2)c2c(N)ncnc21)Cc1ccc(OC)cc1 [Compound 17, N-{2-[4-amino-3-(4-chloro-3-hydroxyphenyl)-1H-pyrazolo[3,4-d]pyrimidin-1-yl]ethyl}-N-[(4-methoxyphenyl)methyl]prop-2-enamide] | -61.1 ± 47.1
3 | 20.8 | 23.4 | 62.5 | 93.1 |  |  |  | C=CC(=O)N(CCn1nc(-c2cc(F)c3c(c2)NCCO3)c2c(N)ncnc21)Cc1ccc(Cl)cc1 [Compound 18, N-{2-[4-amino-3-(8-fluoro-3,4-dihydro-2H-1,4-benzoxazin-6-yl)-1H-pyrazolo [3,4-d]pyrimidin-1-yl]ethyl}-N-[(4-chlorophenyl)methyl]prop-2-enamide] | -7.39 ± 6.26
4 | 17.1 | 40.6 | 90.3 | 95.4 |  |  |  | C=CC(=O)N(CCn1nc(-c2ccc(Cl)c(O)c2)c2c(N)ncnc21)Cc1ccco1 [Compound 20, N-{2-[4-amino-3-(4-chloro-3-hydroxyphenyl)-1H-pyrazolo[3,4-d]pyrimidin-1-yl]ethyl}-N-(furan-2-ylmethyl)prop-2-enamide] | -82 ± 14.7
5 | 8.59 | 56.6 | 9.64 | 37.1 |  |  |  | Nc1ncnc2c1c(-c1cc(O)c(F)c(F)c1)nn2CCNc1ncccn1 [Compound 21, 5-(4-amino-1-{2-[(pyrimidin-2-yl)amino]ethyl}-1H-pyrazolo[3,4-d]pyrimidin-3-yl)-2,3-difluorophenol] | 18.2 ± 2.92
6 | 3.31 | 66.7 | 12.7 | 60.5 |  |  |  | Nc1ncnc2c1c(-c1cc(O)c(F)c(F)c1)nn2CCNCc1cccnc1 [Compound 23, 5-(4-amino-1-{2-[(pyridin-3-ylmethyl)amino]ethyl}-1H-pyrazolo[3,4-d]pyrimidin-3-yl)-2,3-difluorophenol] | 39.7 ± 10.2
7 | -32.3 | 0.74 | 96.5 | 96.7 |  |  |  | C=CC(=O)N(CCn1nc(-c2ccc(Oc3ccccc3)cc2)c2c(N)ncnc21)Cc1ccccc1 [Compound 24, N-{2-[4-amino-3-(4-phenoxyphenyl)-1H-pyrazolo[3,4-d]pyrimidin-1-yl]ethyl}-N-benzylprop-2-enamide] | 55.8 ± 9.1

The next lines start with the molecule.

Row | SMILES | inhibition at 0.01 µM [1] [%] | inhibition at 0.1 µM [1] [%] | inhibition at 0.01 µM [3] [%] | inhibition at 0.1 µM [3] [%] | IC50 [4] [nM] | inhibition at 1 µM [5] [%] | inhibition at 1 µM [3] [%] | inhibition at 0.1 µM [2] [%]
8 | Nc1ncnc2c1c(-c1cc(O)cc(F)c1)nn2CCNCc1ccccc1 [Compound 4, 3-{4-amino-1-[2-(benzylamino)ethyl]-1H-pyrazolo[3,4-d]pyrimidin-3-yl}-5-fluorophenol] | 1.78 | 68 | -1.37 | 14.8 |  |  |  | 39.1 ± 7.85
9 | CCC(=O)N(CCn1nc(-c2cc(O)cc(F)c2)c2c(N)ncnc21)Cc1ccccc1 [Compound 7, N-{2-[4-amino-3-(3-fluoro-5-hydroxyphenyl)-1H-pyrazolo[3,4-d]pyrimidin-1-yl]ethyl}-N-benzylpropanamide] |  | 83.5 |  | 19.9 | 81.9 ± 6.5 | 96.3 | 20.6 | 66.5 ± 5.85
10 | Nc1ncnc2c1c(-c1cc(O)cc(F)c1)nn2CCN(Cc1ccccc1)C(=O)C1CC1 [Compound 8, N-{2-[4-amino-3-(3-fluoro-5-hydroxyphenyl)-1H-pyrazolo[3,4-d]pyrimidin-1-yl]ethyl}-N-benzylcyclopropanecarboxamide] |  | 70 |  | 9.54 |  | 86.1 | 12.2 | 
11 | C=CC(=O)N(CCn1nc(-c2cc(F)cc(OC(C)=O)c2)c2c(N)ncnc21)Cc1ccccc1 [Compound 9, 3-{4-amino-1-[2-(N-benzylprop-2-enamido)ethyl]-1H-pyrazolo [3,4-d]pyrimidin-3-yl}-5-fluorophenyl acetate] |  | 47 |  | 47.3 |  | 85.2 | 91.6 | 
12 | C=CC(=O)N(CCn1cc(-c2ccc(Cl)c(O)c2)c2c(N)ncnc21)Cc1ccc(F)cc1 [Compound 13, N-{2-[4-amino-5-(4-chloro-3-hydroxyphenyl)-7H-pyrrolo[2,3-d]pyrimidin-7-yl]ethyl}-N-[(4-fluorophenyl)methyl]prop-2-enamide] | 14 | 43 | 95.6 | 98.6 |  |  |  | -165 ± 63
13 | C=CC(=O)N(CCn1nc(-c2ccc(Cl)c(O)c2)c2c(N)ncnc21)Cc1ccc(F)cc1 [Compound 14, N-{2-[4-amino-3-(4-chloro-3-hydroxyphenyl)-1H-pyrazolo[3,4-d]pyrimidin-1-yl]ethyl}-N-[(4-fluorophenyl)methyl]prop-2-enamide] | 24.8 | 55 | 86.5 | 96.1 |  |  |  | -135 ± 55.8
